Results taken from patent US6914045B2, “Glycopeptide antibiotics” (Wyeth Holdings Corporation, priority 2001, dated 2005).
Values after ≈ are worked out from the molar mass of the structure shown.

What was measured:
Assay in all cases: in vitro antibacterial evaluation, MIC by broth dilution
Assay type in all cases: cell-based
Staphylococcus sp. = settings: broth dilution, 18 hours at 35° C.
Summary of the method: (§1)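 Read-out: the lowest concentration at which the test strain fails to grow. Serial dilutions (64-0.06 μg/mL) in Muller-Hinton II […], 5×10^5 CFU/mL inoculum, NCCLS M7-A2 procedure.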

Enterococcus sp. = settings: broth dilution, 18 hours at 35° C.
Summary of the method: as §1

Streptococcus sp. = settings: broth dilution, 18 hours at 35° C.
Summary of the method: as §1

Escherichia coli = settings: 18 hours at 35° C.

CC(c1ccccc1)C1NC(=O)CNC(=O)C(CO)NC(=O)C(CC2CNC(=N)N2C2OC(CO)C(O)C(O)C2O)NC(=O)C(CC2CNC(=N)N2)NC(=O)C(Cc2ccc(OC3OC(CO)C(OC4OC(CO)C(OCc5ccc(OCc6ccccc6)cc5)C(O)C4O)C(O)C3O)cc2)NC1=O (stereo not shown) [Example 246a]
MIC Coagulase Negative Staphylococcus (GC 4547) (Staphylococcus sp.): 1 µg/mL (≈ 0.685 µM) | MIC Coagulase Negative Staphylococcus (GC 4548) (Staphylococcus sp.): 1 µg/mL (≈ 0.685 µM) | MIC Coagulase Negative Staphylococcus (GC 4549) (Staphylococcus sp.): 1 µg/mL (≈ 0.685 µM) | MIC Coagulase Negative Staphylococcus (GC 4551) (Staphylococcus sp.): 2 µg/mL (≈ 1.37 µM) | MIC Coagulase Negative Staphylococcus (GC 6257) (Staphylococcus sp.): 2 µg/mL (≈ 1.37 µM) | MIC Staphylococcus aureus (ATCC 29213) (Staphylococcus sp.): 2 µg/mL (≈ 1.37 µM) | MIC Staphylococcus aureus (GC 1131) (Staphylococcus sp.): 4 µg/mL (≈ 2.74 µM) | MIC Staphylococcus aureus (GC 3051) (Staphylococcus sp.): 1 µg/mL (≈ 0.685 µM) | MIC Staphylococcus aureus (GC 3053) (Staphylococcus sp.): 2 µg/mL (≈ 1.37 µM) | MIC Staphylococcus aureus (GC 4541) (Staphylococcus sp.): 1 µg/mL (≈ 0.685 µM) | MIC Staphylococcus aureus (GC 4542) (Staphylococcus sp.): 1 µg/mL (≈ 0.685 µM) | MIC Staphylococcus aureus (GC 4544) (Staphylococcus sp.): 2 µg/mL (≈ 1.37 µM) | MIC Staphylococcus aureus (GC 4545) (Staphylococcus sp.): 2 µg/mL (≈ 1.37 µM) | MIC Staphylococcus aureus-SMITH (GC 4543) (Staphylococcus sp.): 1 µg/mL (≈ 0.685 µM) | MIC Staphylococcus haemolyticus (GC 4546) (Staphylococcus sp.): 1 µg/mL (≈ 0.685 µM) | MIC Staphylococcus aureus (ATCC 29213) (Staphylococcus sp.; strain ATCC 29213): 2 µg/mL (≈ 1.37 µM) | MIC Staphylococcus aureus (GC 1131) (Staphylococcus sp.; strain GC 1131): 4 µg/mL (≈ 2.74 µM) | MIC Staphylococcus aureus (GC 3051) (Staphylococcus sp.; strain GC 3051): 1 µg/mL (≈ 0.685 µM) | MIC Staphylococcus aureus (GC 3053) (Staphylococcus sp.; strain GC 3053): 2 µg/mL (≈ 1.37 µM) | MIC Staphylococcus aureus (GC 4541) (Staphylococcus sp.; strain GC 4541): 1 µg/mL (≈ 0.685 µM) | MIC Staphylococcus aureus (GC 4542) (Staphylococcus sp.; strain GC 4542): 1 µg/mL (≈ 0.685 µM) | MIC Staphylococcus aureus-SMITH (GC 4543) (Staphylococcus sp.; strain GC 4543): 1 µg/mL (≈ 0.685 µM) | MIC Staphylococcus aureus (GC 4544) (Staphylococcus sp.; strain GC 4544): 2 µg/mL (≈ 1.37 µM) | MIC Staphylococcus aureus (GC 4545) (Staphylococcus sp.; strain GC 4545): 2 µg/mL (≈ 1.37 µM) | MIC Staphylococcus haemolyticus (GC 4546) (Staphylococcus sp.; strain GC 4546): 1 µg/mL (≈ 0.685 µM) | MIC Coagulase Negative Staphylococcus (GC 4547) (Staphylococcus sp.; strain GC 4547): 1 µg/mL (≈ 0.685 µM) | MIC Coagulase Negative Staphylococcus (GC 4548) (Staphylococcus sp.; strain GC 4548): 1 µg/mL (≈ 0.685 µM) | MIC Coagulase Negative Staphylococcus (GC 4549) (Staphylococcus sp.; strain GC 4549): 1 µg/mL (≈ 0.685 µM) | MIC Coagulase Negative Staphylococcus (GC 4551) (Staphylococcus sp.; strain GC 4551): 2 µg/mL (≈ 1.37 µM) | MIC Coagulase Negative Staphylococcus (GC 6257) (Staphylococcus sp.; strain GC 6257): 2 µg/mL (≈ 1.37 µM) | MIC Enterococcus avium (GC 4558) (Enterococcus sp.): 2 µg/mL (≈ 1.37 µM) | MIC Enterococcus faecalis (ATCC 29212) (Enterococcus sp.): 4 µg/mL (≈ 2.74 µM) | MIC Enterococcus faecalis (GC 2242) (Enterococcus sp.): 4 µg/mL (≈ 2.74 µM) | MIC Enterococcus faecalis (GC 2691) (Enterococcus sp.): 8 µg/mL (≈ 5.48 µM) | MIC Enterococcus faecalis (GC 3059) (Enterococcus sp.): 4 µg/mL (≈ 2.74 µM) | MIC Enterococcus faecalis (GC 4552) (Enterococcus sp.): 4 µg/mL (≈ 2.74 µM) | MIC Enterococcus faecalis (GC 4553) (Enterococcus sp.): 2 µg/mL (≈ 1.37 µM) | MIC Enterococcus faecalis (GC 4554) (Enterococcus sp.): 4 µg/mL (≈ 2.74 µM) | MIC Enterococcus faecalis (GC 6189) (Enterococcus sp.): 4 µg/mL (≈ 2.74 µM) | MIC Enterococcus faecium (GC 2243) (Enterococcus sp.): 4 µg/mL (≈ 2.74 µM) | MIC Enterococcus faecium (GC 4556) (Enterococcus sp.): 4 µg/mL (≈ 2.74 µM) | MIC Enterococcus faecium (GC 4557) (Enterococcus sp.): 2 µg/mL (≈ 1.37 µM) | MIC Enterococcus faecalis (ATCC 29212) (Enterococcus sp.; strain ATCC 29212): 4 µg/mL (≈ 2.74 µM) | MIC Enterococcus faecium (GC 2243) (Enterococcus sp.; strain GC 2243): 4 µg/mL (≈ 2.74 µM) | MIC Enterococcus faecalis (GC 4552) (Enterococcus sp.; strain GC 4552): 4 µg/mL (≈ 2.74 µM) | MIC Enterococcus faecalis (GC 4553) (Enterococcus sp.; strain GC 4553): 2 µg/mL (≈ 1.37 µM) | MIC Enterococcus faecalis (GC 4554) (Enterococcus sp.; strain GC 4554): 4 µg/mL (≈ 2.74 µM) | MIC Enterococcus faecium (GC 4556) (Enterococcus sp.; strain GC 4556): 4 µg/mL (≈ 2.74 µM) | MIC Enterococcus faecium (GC 4557) (Enterococcus sp.; strain GC 4557): 2 µg/mL (≈ 1.37 µM) | MIC Enterococcus avium (GC 4558) (Enterococcus sp.; strain GC 4558): 2 µg/mL (≈ 1.37 µM) | MIC Enterococcus faecalis (GC 6189) (Enterococcus sp.; strain GC 6189): 4 µg/mL (≈ 2.74 µM) | MIC Enterococcus faecalis (GC 2242) (Enterococcus sp.; inoculum 5×10^5 CFU/mL, strain GC 2242): 4 µg/mL (≈ 2.74 µM) | MIC Enterococcus faecalis (GC 2691) (Enterococcus sp.; inoculum 5×10^5 CFU/mL, strain GC 2691): 8 µg/mL (≈ 5.48 µM) | MIC Enterococcus faecalis (GC 3059) (Enterococcus sp.; inoculum 5×10^5 CFU/mL, strain GC 3059): 4 µg/mL (≈ 2.74 µM) | MIC Streptococcus agalactiae (GC 4564) (Streptococcus sp.): 0.5 µg/mL (≈ 0.343 µM) | MIC Streptococcus pneumoniae (ATCC 6301) (Streptococcus sp.): 0.25 µg/mL (≈ 0.171 µM) | MIC Streptococcus pneumoniae (GC 1894) (Streptococcus sp.): <0.12 µg/mL | MIC Streptococcus pneumoniae (GC 4565) (Streptococcus sp.): 0.25 µg/mL (≈ 0.171 µM) | MIC Streptococcus pyogenes (GC 4563) (Streptococcus sp.): 0.5 µg/mL (≈ 0.343 µM) | MIC Streptococcus pneumoniae (ATCC 6301) (Streptococcus sp.; inoculum 5×10^5 CFU/mL, strain ATCC 6301): 0.25 µg/mL (≈ 0.171 µM) | MIC Streptococcus pneumoniae (GC 1894) (Streptococcus sp.; inoculum 5×10^5 CFU/mL, strain GC 1894): <0.12 µg/mL | MIC Streptococcus pyogenes (GC 4563) (Streptococcus sp.; inoculum 5×10^5 CFU/mL, strain GC 4563): 0.5 µg/mL (≈ 0.343 µM) | MIC Streptococcus agalactiae (GC 4564) (Streptococcus sp.; inoculum 5×10^5 CFU/mL, strain GC 4564): 0.5 µg/mL (≈ 0.343 µM) | MIC Streptococcus pneumoniae (GC 4565) (Streptococcus sp.; inoculum 5×10^5 CFU/mL, strain GC 4565): 0.25 µg/mL (≈ 0.171 µM) | MIC Escherichia coli (ATCC 25922) (Escherichia coli): 16 µg/mL (≈ 11 µM) | MIC Escherichia coli (GC 4559) (Escherichia coli): 16 µg/mL (≈ 11 µM) | MIC Escherichia coli (GC 4560) (Escherichia coli): 2 µg/mL (≈ 1.37 µM)
